From patent US10617649B2 (Zhejiang Huahai Pharmaceutical Co., Ltd, priority 2016, dated 2020)

Columns and labels:
[1] = Content of bacterial endotoxin; details: excipient used in Example 3
[2] = Stability of azacitidine solution as a function of the preparation temperature; format: physicochemical
[3] = temperature of azacitidine solution higher than 6° C.

Compound	Content of bacterial endotoxin in excipient [1]	Stability of azacitidine in solution, compared between temperatures ([2]; solution prepared at 4-6° C. compared to 2-3° C.)	Stability of azacitidine in solution ([2]; temperature for preparing azacitidine solution controlled at 2-6° C.)	Content of azacitidine in solution [2, 3]	Related substances in solution [2, 3]
OC[C@@H](O)[C@@H](O)[C@H](O)[C@H](O)CO [mannitol, Mannitol]	2.5 EU/g	–	–	–	–
Nc1ncn([C@@H]2O[C@H](CO)[C@@H](O)[C@H]2O)c(=O)n1 [azacitidine, Azacitidine]	–	the same stability	good stability	significantly decreased	significantly increased
